According to patent publication US20260374750A1, “LIGANDS SPECIFICALLY TARGETING VESICULAR GLUTAMATE TRANSPORTERS FOR SUPER-RESOLUTION IMAGING” (SORBONNE UNIVERSITÉ, priority 2021, published 2026):
Where two headings read alike, the source gives them in different places.

Tests used:
[1] = Fluorimetry: absorption and emission spectra, Stokes shift, molar absorption coefficient, quantum efficiency; format: physicochemical; set-up: λmax abs / λmax em: unit not given here; key to Stokes shift: λmaxem − λmaxabs (emission peak minus absorption peak); conditions: for Stokes shift: λmaxem-λmaxabs; for ε (molar absorption coefficient) / φ (quantum efficiency): coumarin-343 as reference
Experimental: The physicochemical properties of each ligand were determined thanks to fluorimetry. For each compound, a dilution range was performed and measurements were taken at 1 mM, 316 μM, 100 μM, 31.6 μM, 10 μM, 3.16 μM and 1μ. In 96-well fluorescence microplates, the absorbance and emission spectra of the ligands could be determined at each concentration thanks to a plate spectrophotometer (Tecan). The absorbance spectra are first measured for each compound so as to determine the maximum absorption wavelength (λmaxabs). The fluorescence, or emission, spectra are then determined after excitation of each compound at its λmaxabs, thus allowing obtaining the maximum fluorescence wavelength (λmaxem). Different parameters specific to each of the compounds were determined: • The Stokes shift: it corresponds to the difference between the peak of the absorption spectrum and the peak of the fluorescence spectrum, i.e.: λmaxem-λmaxabs • The molar absorption coefficient (ε): it reflects the capacity of the solutions to absorb light and is determined by the formula ε=A/(C.I)(A: optical density at λmaxabs, C: concentration of the compound, I: constant corresponding to the length of the optical path). ε is expressed in L·cm^−1·mol^−1. • The quantum efficiency (Φ): it represents the ratio of the number of photons emitted to the number of photons absorbed by the compound, i.e. the “probability” for an excited molecule to emit a photon. It takes a value between 0 and 1, 0 corresponding to a non-fluorescent molecule and 1 meaning that there is no de-excitation. Its value is determined thanks to the following formula where Abs: optical density at λmaxabs, AUC: area under the curve of the fluorescence spectrum, n: refractive index of the medium. In this formula, “m” refers to the studied molecule, and “r” to a reference fluorophore.
[formula] • of the fluorescence spectrum, n: refractive index of the medium). In this formula, “m” refers to the studied molecule, and “r” to a reference fluorophore.
The determination of ε and Φ requires the use of a reference fluorescent molecule for which these two parameters are known. Because of its coumarin-type fluorescent pattern, therefore close to those of the studied compounds, coumarin-343 (ε=44300 L·cm−1·mol−1 and Φ=0.63 in ethanol) was used as reference fluorophore. These two parameters were recalculated in the compound dilution medium (DMSO), and were used as a reference in the calculation of ε and Φ for each ligand.
In order to study the effect of a pH variation on the fluorescence intensity of the compounds, the measurements of the absorption and emission spectra were carried out in three different dilution media: • DMSO: pure dimethyl sulfoxide • Phosphate buffer pH 7.2 (0.2 M) • Phosphate buffer pH 5.5 (0.2 M)
FIG. 1 illustrates the absorption and emission spectra of the compound referenced L8, a carboxylic acid from the quinoline family. This is an example of the study carried out on each of the studied fluorophores. The graphic values determined thanks to these spectra are the λmaxabs, the λmaxem and the Stokes shift in each medium. […] The most diluted wells are preferred to see the emission peak of the compound.
The results which are obtained graphically thanks to the excitation and emission spectra and by calculation via the properties of coumarin 343 are grouped in Table 2 below.

BON WT cells = experiment: Confocal fluorescence labeling of wild-type BON cells; format: cell-based, human; conditions: FIG. 2
Experimental: (§1) The experiments are carried out with a BON cell line stably expressing VGLUT3 or a fluorescent VGLUT2 “VGLUT2-venus”. Wild non-transfected BON cells (“wild-type”, BON WT) are used as controls. The cells are cultured in F-12 Nutrient Mixture Ham medium (21765-029, Thermo Fisher Scientific) and Dulbecco's Modified Eagle's Medium High Glucose (DMEM HG, 31966021, Thermo Fisher Scientific; volume/volume), supplemented with 10% fetal calf serum (FCS, 12483012, Thermo Fisher Scientific) and 1% (volume/volume) of a mixture of streptomycin (10 mg/mL)/penicillin (10,000 U/mL) and […] an incubator at 37 °C under 5% CO2. For the transfected clones, the medium is enriched with 0.8 mg/mL Geneticin G418 sulfate (G418, 10131027, Thermo Fisher Scientific).
(§2) Two days before each experiment, after trypsinization of the cells from a culture flask, the cell suspension is seeded at 150,000 cells/well, in twelve-well plates on glass coverslips 19 mm in diameter. For observation, these coverslips are placed in a chamber allowing a hermetic fixation of the coverslip in the observation medium, Fluorobrite™ DMEM (A1896701, Thermo Fisher Scientific), a transparent medium.
(§3) Before each observation, the cells are incubated at 37 °C in the presence of fluorescent ligands, at previously determined concentrations. The effect of a pretreatment of BON cells with a specific inhibitor of VGLUTs, the substance LSP5-2157, is also performed to study the inhibitory effect of this substance on the labeling of BON cells with the fluorescent ligands of the invention.
(§4) The cells are observed in real time under an inverted confocal microscope, with a 63× objective in a room thermostated at 37 °C (Leica TCS SP5; cellular imaging platform of the Paris-Seine Institute of Biology). The studied fluorescent molecules emit in the blue, the cells are excited at 405 nm.
(§5) FIG. 2 illustrates the observation and quantification of the BON cells under a confocal microscope, and the inhibition of the fluorescent signal by a pretreatment of the cells with the specific VGLUT inhibitor, LSP5-2157. […] The images are presented in negative. D,H,L and P: Quantification of the treatment effect.

[2] = tested on: VGLUT3 (BON VGLUT3 cells); experiment: Confocal fluorescence labeling of BON cells expressing VGLUT3; format: cell-based, human (BON cells); conditions: for fluorescence intensity in BON VGLUT3 cells relative to BON WT cells / labeling in cytoplasm of BON VGLUT3 cells: 1 h; for fluorescence intensity in BON VGLUT3 cells relative to BON WT cells / labeling in cytoplasm of BON VGLUT3 cells / intensity of labeling in BON VGLUT3 cells relative to BON WT cells: 37 °C; for effect of LSP5 pretreatment on fluorescence intensity in BON VGLUT3 cells: pretreatment with LSP5-2157; for intensity of labeling in BON VGLUT3 cells relative to BON WT cells: FIG. 3, 20 minutes
Experimental: A “BON” cell line describes cells derived from human pancreatic carcinoma; the article by Ramet L. et al., published in J Neurosci, 2017, 37 (15), 4181-4199, describes such cells and the use thereof for the characterization of VGLUT type transporters.
as §1
The cells are cultured in 25 cm^2 culture flasks. When the cells are at confluence, they are rinsed with sterile PBS 1× after aspiration of the medium, then incubated for five minutes at 37 °C with a solution of trypsin-EDTA (0.05% trypsin EDTA, 25300054, Thermo Fisher Scientific. The cell layer is then detached and the cells dissociated from each other. After addition of medium, the cell suspension is centrifuged for 5 minutes at 300 g, then the pellet is diluted 1:3 in order to be recultivated.
as §2, §3, §4, §5
Different acquisitions of cells are carried out using a confocal microscope. […] Statistical analysis: Kruskal-Wallis test followed by Dunn's post-hoc test, NS: non-significant, *p<0.01; ***p<0.0001.
FIG. 3 illustrates the observation and quantification of BON cells using a confocal microscope. Wild-type cells (BON WT) or VGLUT3-expressing cells (BON VGLUT3) are incubated with different fluorescent ligands referenced: L8, YL151, D04, C07, C05, B09, G02, F11. After treatment with fluorescent ligands for 20 minutes at 37 °C, a fluorescent labeling is visible in BON cells. The effect of the treatment is analyzed by quantifying the fluorescence intensity in each cell type. […] Statistical analysis: Mann Whitney test, NS: non-significant, **p=0.0042; ***p<0.0001.

[3] = reference fluorophore, in ethanol; cited from earlier work
[4] = pH 7 (phosphate buffer pH 7.2, 0.2 M)
[5] = phosphate buffer pH 5.5 (0.2 M)

| SMILES | λmax abs ([1]; DMSO) | λmax em ([1]; DMSO) | Stokes shift ([1]; DMSO) | ε (molar absorption coefficient) ([1]; DMSO) | φ (quantum efficiency) ([1]; DMSO) | Stokes shift ([1]; pH 5.5) | λmax abs [1, 4] | λmax em [1, 4] | Stokes shift ([1]; pH 7) | λmax abs [1, 5] | λmax em [1, 5] | labeling in cytoplasm of BON WT cells (BON WT cells) | fluorescence intensity in BON VGLUT3 cells relative to BON WT cells ([2]; FIG. 2) | labeling in cytoplasm of BON VGLUT3 cells ([2]; FIG. 2) | effect of LSP5 pretreatment on fluorescence intensity in BON VGLUT3 cells ([2]; FIG. 2) | intensity of labeling in BON VGLUT3 cells relative to BON WT cells [2] | other results |
| --- | --- | --- | --- | --- | --- | --- | --- | --- | --- | --- | --- | --- | --- | --- | --- | --- | --- |
| CCOC(=O)c1cc2cc(-n3cc(-c4ccc(-c5ccc(N)cc5)cc4)nn3)ccc2oc1=O [B09, Ethyl-6-(4-(4′-amino-[1,1′-biphenyl]-4-yl)-1H-1,2,3-triazol-1-yl)-2-oxo-2H-chromene-3-carboxylate] | 320 | 407 | 87 | 48740.9 L/cm/mol | 0.1 | 47 | 365 | 412 | 47 | 365 | 412 | a weak and homogeneous labeling is detected | significantly increases | a punctiform labeling appears | decreases the fluorescence intensity | increases significantly | – |
| CCOC(=O)c1cc2cc(-n3cc(-c4ccc(-c5ccc(N)cc5)cc4)nn3)c(OC)cc2oc1=O [C07, Ethyl 6-(4-(4′-amino-[1,1′-biphenyl]-4-yl)-1H-1,2,3-triazol-1-yl)-7-methoxy-2-oxo-2H-chromene-3-carboxylate] | 335 | 410-430 | 75 | 64913.8 L/cm/mol | 0.05 | 50 | 365 | 400 | 35 | 330 | 380 | a weak and homogeneous labeling is detected | significantly increases | a punctiform labeling appears | do not significantly differ | increases significantly | – |
| Nc1cc(S(=O)(=O)O)cc2cc(S(=O)(=O)O)c(/N=N/c3ccc(-c4ccc(/N=N/c5c(S(=O)(=O)O)cc6cc(S(=O)(=O)O)cc(N)c6c5O)cc4)cc3)c(O)c12 [LSP5-2157, reference compound] | – | – | – | – | – | – | – | – | – | – | – | – | – | – | – | – | inhibition of fluorescent labeling by pre-incubation with VGLUT inhibitor ([2]; FIG. 2, against labeling by fluorescent ligands): significantly reduces the fluorescent labeling; displacement of ligand binding in cell culture ([2]; reference VGLUT inhibitor): capable of displacing the ligand binding in cell culture |
| CCOC(=O)c1cc(C(=O)OCC)c2cc(-c3ccc(-c4ccccc4)cc3)ccc2n1 [YL151, Diethyl 6-(biphenyl-4-yl) quinoline-2,4-dicarboxylate] | 360 | 420-570 | 60 | 25747.1 L/cm/mol | 0.11 | 85 | 365 | 440 | 75 | 365 | 450 | – | – | – | – | increases significantly | – |
| O=C(O)c1cc2cc3c4c(c2oc1=O)CCCN4CCC3 [coumarin-343] | – | – | – | – | – | – | – | – | – | – | – | – | – | – | – | – | Φ (quantum efficiency) [3]: 0.63; ε (molar absorption coefficient) [3]: 44300 L/cm/mol |
| Cc1cc(-c2ccc(/N=N/c3c(S(=O)(=O)O)cc4cc(S(=O)(=O)O)cc(N)c4c3O)c(C)c2)ccc1/N=N/c1c(S(=O)(=O)O)cc2cc(S(=O)(=O)O)cc(N)c2c1O [trypan blue, reference compound] | – | – | – | – | – | – | – | – | – | – | – | – | – | – | – | – | block of binding of novel ligands by reference inhibitor [2]: block the binding of novel ligands |
